Columns and labels:
[1] = target: T1, Amine oxidase [flavin-containing] A (Homo sapiens, UniProt P21397); experiment: Tested for maximum velocity of monoamine oxidase A catalyzed oxidation; parameters: unit not given here
T1 sequence (P21397 whole entry): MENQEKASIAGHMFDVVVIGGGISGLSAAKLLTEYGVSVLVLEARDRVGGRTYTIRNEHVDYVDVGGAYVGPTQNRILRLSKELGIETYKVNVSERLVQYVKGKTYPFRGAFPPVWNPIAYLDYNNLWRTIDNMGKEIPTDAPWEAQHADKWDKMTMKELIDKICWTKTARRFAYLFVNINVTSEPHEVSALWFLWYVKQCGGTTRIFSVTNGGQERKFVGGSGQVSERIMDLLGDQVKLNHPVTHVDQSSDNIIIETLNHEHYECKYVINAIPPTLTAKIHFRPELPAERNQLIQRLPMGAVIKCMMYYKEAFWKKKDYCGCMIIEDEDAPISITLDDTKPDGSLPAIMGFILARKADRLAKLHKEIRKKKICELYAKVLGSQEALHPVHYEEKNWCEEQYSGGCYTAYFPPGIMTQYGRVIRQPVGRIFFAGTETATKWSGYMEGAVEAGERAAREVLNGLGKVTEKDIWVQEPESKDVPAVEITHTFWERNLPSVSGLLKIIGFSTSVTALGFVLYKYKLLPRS

[2] = target: T1, Amine oxidase [flavin-containing] A; experiment: Vmax/Km values for MAO-A; parameters: unit not given here
[3] = target: T2, Amine oxidase [flavin-containing] B (Bos taurus, UniProt P56560); experiment: Tested for maximum velocity of monoamine oxidase B catalyzed oxidation; parameters: unit not given here
T2 sequence (P56560 whole entry): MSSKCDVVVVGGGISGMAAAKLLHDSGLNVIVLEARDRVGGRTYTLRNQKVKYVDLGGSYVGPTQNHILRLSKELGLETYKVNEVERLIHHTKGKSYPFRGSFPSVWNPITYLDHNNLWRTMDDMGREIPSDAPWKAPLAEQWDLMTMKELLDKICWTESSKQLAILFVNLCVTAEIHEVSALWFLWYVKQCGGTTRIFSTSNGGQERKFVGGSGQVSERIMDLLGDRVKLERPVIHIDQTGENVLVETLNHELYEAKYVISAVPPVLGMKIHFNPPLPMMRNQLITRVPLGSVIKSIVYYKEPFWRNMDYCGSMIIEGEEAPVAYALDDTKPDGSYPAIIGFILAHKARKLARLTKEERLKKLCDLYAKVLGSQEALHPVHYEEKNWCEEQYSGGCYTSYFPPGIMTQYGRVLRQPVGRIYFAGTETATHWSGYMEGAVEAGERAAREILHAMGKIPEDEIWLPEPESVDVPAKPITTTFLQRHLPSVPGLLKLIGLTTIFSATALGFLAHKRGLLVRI

[4] = target: T3, Amine oxidase [flavin-containing] B (Homo sapiens, UniProt P27338); experiment: Vmax/Km values for MAO-B; parameters: unit not given here
T3 sequence (P27338 whole entry): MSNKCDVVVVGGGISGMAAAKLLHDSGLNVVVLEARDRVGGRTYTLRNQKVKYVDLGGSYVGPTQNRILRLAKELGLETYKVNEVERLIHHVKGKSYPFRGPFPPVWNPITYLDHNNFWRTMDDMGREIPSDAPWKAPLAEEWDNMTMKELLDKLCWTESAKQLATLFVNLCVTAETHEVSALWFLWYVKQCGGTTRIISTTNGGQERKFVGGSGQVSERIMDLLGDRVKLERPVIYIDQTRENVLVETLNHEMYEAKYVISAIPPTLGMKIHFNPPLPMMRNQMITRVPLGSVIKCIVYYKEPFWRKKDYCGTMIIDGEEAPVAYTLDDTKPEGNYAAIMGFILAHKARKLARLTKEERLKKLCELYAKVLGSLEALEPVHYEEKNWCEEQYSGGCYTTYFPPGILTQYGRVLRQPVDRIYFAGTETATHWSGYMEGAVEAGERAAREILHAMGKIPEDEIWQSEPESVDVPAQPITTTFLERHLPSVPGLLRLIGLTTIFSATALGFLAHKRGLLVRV

Monoamine oxidase = target: T4, Monoamine oxidase (Homo sapiens, UniProt P21397+P27338); experiment: Selectivity Coefficient measured as ratio of Vmax/Km value of MAO-B to that of MAO-A; type: protein assay
T4 sequence (P21397 whole entry): T1 sequence (P21397 whole entry)
T4 sequence (P27338 whole entry): T3 sequence (P27338 whole entry)

[5] = target: T2, Amine oxidase [flavin-containing] B; experiment: Tested for Kinetic data against the monoamine oxidase B catalyzed oxidation.
[6] = target: T1, Amine oxidase [flavin-containing] A; experiment: Tested for Kinetic data against the monoamine oxidase A catalyzed oxidation.
[7] = target: T1, Amine oxidase [flavin-containing] A; experiment: Tested for Kinetic data against the monoamine oxidase A catalyzed oxidation;NSD = No substrate properties detected
[8] = target: T1, Amine oxidase [flavin-containing] A; experiment: Tested for inhibition- binding affinity against monoamine oxidase A catalyzed oxidation; NID = no inactivation properties detected.
[9] = target: T1, Amine oxidase [flavin-containing] A; experiment: Tested for Km, the substrate concentration with gives half maximum velocity of the monoamine oxidase A catalyzed oxidation; NSD = no substrate properties detected
[10] = target: T2, Amine oxidase [flavin-containing] B; experiment: Tested for Km, the substrate concentration with gives half maximum velocity of the monoamine oxidase B catalyzed oxidation; NSD = no substrate properties detected
[11] = target: T2, Amine oxidase [flavin-containing] B; experiment: Tested for inhibition- binding affinity against monoamine oxidase B catalyzed oxidation; NID = no inactivation properties detected.

Structure (SMILES) | Vmax [3] | Ratio [4] | Selectivity coefficient (Monoamine oxidase) | Vmax / Km [5] | Vmax / Km [6] | also measured
CN1CC=C(c2ccc3ccccc3c2)CC1 | 42 | 71 |  |  |  | Vmax [1]: 204; Ratio [2]: 443
CN1CC=C(c2ccccc2)CC1 | 204 | 523 | 3.65 |  |  | Vmax [1]: 20; Ratio [2]: 143
CN1CC=C(c2cccc3ccccc23)CC1 | 51 | 364 |  |  |  | Vmax [1]: 526; Ratio [2]: 862
CCc1ccccc1C1=CCN(C)CC1 |  |  | 0.43 | 4920 M⁻¹ s⁻¹ | 11500 M⁻¹ s⁻¹ | 
CC(C)c1ccccc1C1=CCN(C)CC1 |  |  | 0.05 | 850 M⁻¹ s⁻¹ | 18700 M⁻¹ s⁻¹ | 
CN1CC=C(c2c[nH]c3ccccc23)CC1.O=C(O)C(=O)O | 358 |  |  | 6620 M⁻¹ s⁻¹ |  | 
COc1cccc(C2=CCN(C)CC2)c1 |  |  |  | 15600 M⁻¹ s⁻¹ |  | Vmax / Km [7]: No substrate detected
CN1CC=C(c2cccc(Oc3ccccc3)c2)CC1 |  |  |  |  | 92800 M⁻¹ s⁻¹ | 
C1=C(c2ccc(-c3ccccc3)cc2)CCN(C2CC2)C1 |  |  |  |  |  | Ki [8]: No inhibition
CN1CC=C(c2cccc(-c3ccccc3)c2)CC1 | 153 | 157 |  |  |  | Km [9]: No substrate detected
CN1CC=C(c2ccc(-c3ccccc3)cc2)CC1 |  |  |  |  |  | Km [10]: No substrate detected; Km [9]: No substrate detected
Cc1ccccc1C1=CCN(C)CC1 |  |  | 2.19 | 21470 M⁻¹ s⁻¹ | 9800 M⁻¹ s⁻¹ | 
C1=C(c2ccccc2-c2ccccc2)CCN(C2CC2)C1 |  |  |  |  |  | Ki [11]: No inhibition
Cc1cccc(C2=CCN(C)CC2)c1 |  |  | 8.5 | 10800 M⁻¹ s⁻¹ | 1270 M⁻¹ s⁻¹ | 
CN1CC=C(c2ccccc2-c2ccccc2)CC1 | 20 | 12 |  |  |  | Vmax [1]: 107; Ratio [2]: 892
